Assay [1] addresses E. coli EDA (Escherichia coli, UniProt P0A955). The following applies: pH 8.0, 30 °C, 50 mM KH2PO4, 100 mM NaCl, 1 mM DTT; aldol cleavage to GAP and pyruvate.
The target in assay [2] is T1, GmEDA (soybean KDPG aldolase, pseudomature) (Glycine max, UniProt K7LFS1).
T1 construct: gene LOC100800025
T1 sequence (K7LFS1 1-256): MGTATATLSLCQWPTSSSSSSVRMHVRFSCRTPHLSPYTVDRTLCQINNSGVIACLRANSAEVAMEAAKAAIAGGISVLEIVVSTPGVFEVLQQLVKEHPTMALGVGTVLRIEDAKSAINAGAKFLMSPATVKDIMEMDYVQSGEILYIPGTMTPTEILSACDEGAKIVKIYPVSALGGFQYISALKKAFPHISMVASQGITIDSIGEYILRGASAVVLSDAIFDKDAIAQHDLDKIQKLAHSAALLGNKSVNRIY
The experiment in a line: LCMS/MS product assay, Lineweaver-Burk. The following applies: pH 8.0, 30 °C, 50 mM KH2PO4, 100 mM NaCl, 1 mM DTT; substrate 0.25-1 mM; aldol cleavage. In kind it is biochemical.

Assay [3] concerns the target T2, E. coli DHAD (Escherichia coli, UniProt P05791).
T2 construct: gene ilvD; full length, His-tagged (pET28), E. coli BL21(DE3), Ni-NTA
The assay is described as follows: LCMS/MS product assay. Type of assay: biochemical. Conditions: pH 8.0, 30 °C, 100 mM Tris-HCl, 10 mM MgCl2, 1 mM DTT; 4.4 mM substrate; dehydration to 2-ketoisovalerate.

Assay [4] addresses T3, E. coli EDD (Escherichia coli, UniProt P0ADF6).
T3 construct: full length, His-tagged (pET28), E. coli BL21(DE3), Ni-NTA
T3 sequence (P0ADF6 1-603): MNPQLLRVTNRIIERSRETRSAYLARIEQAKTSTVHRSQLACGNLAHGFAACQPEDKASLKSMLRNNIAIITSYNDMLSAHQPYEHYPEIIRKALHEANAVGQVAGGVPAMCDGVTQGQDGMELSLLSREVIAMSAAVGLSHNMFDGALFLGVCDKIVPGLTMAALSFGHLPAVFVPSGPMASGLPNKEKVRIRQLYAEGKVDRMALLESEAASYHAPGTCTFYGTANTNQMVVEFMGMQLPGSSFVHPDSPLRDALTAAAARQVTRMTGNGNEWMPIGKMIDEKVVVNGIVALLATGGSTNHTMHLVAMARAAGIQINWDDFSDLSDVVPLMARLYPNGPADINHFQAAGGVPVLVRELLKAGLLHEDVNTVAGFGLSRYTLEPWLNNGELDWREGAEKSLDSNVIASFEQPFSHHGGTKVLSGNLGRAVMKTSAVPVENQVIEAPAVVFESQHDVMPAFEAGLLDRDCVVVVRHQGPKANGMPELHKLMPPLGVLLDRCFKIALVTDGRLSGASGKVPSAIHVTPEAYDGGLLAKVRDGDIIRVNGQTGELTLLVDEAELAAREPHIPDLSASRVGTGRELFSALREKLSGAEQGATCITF
The assay is described as follows: LCMS/MS product assay. Conditions: pH 8.0, 30 °C, 100 mM Tris-HCl, 10 mM MgCl2, 1 mM DTT; 4.4 mM substrate; dehydration to KDPG. In kind it is biochemical.

E. coli EDA, sequence (P0A955 whole entry): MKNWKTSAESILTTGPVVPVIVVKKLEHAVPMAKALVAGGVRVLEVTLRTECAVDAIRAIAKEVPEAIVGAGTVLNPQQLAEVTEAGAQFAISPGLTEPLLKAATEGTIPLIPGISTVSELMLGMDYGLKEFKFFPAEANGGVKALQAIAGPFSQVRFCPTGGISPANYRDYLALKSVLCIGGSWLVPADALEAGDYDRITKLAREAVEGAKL
T2 sequence (P05791 2-616): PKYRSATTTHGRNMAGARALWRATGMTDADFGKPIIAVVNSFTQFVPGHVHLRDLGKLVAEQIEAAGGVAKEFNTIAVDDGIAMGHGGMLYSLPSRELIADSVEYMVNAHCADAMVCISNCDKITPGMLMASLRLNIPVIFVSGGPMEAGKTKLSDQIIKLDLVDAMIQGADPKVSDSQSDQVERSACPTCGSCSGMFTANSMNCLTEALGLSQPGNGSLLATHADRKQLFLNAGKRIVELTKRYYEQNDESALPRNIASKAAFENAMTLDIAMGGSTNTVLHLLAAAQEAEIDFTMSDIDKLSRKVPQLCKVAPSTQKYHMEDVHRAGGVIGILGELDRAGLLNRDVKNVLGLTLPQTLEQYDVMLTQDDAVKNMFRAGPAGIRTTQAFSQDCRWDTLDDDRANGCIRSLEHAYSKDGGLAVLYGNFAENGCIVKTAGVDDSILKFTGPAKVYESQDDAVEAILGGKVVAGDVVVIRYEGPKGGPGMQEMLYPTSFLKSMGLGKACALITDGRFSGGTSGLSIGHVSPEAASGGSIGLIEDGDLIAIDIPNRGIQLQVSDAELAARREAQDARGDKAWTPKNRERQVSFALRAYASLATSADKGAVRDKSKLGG

What is called Km is the concentration of substrate that gives half-maximal velocity. On to `O=C(O)C(=O)C[C@H](O)[C@H](O)COP(=O)(O)O` [KDPG], for which the “LCMS/MS and GC-MS product assay” value in assay [1] is “enzymatic assay of soybean and E. coli EDA when KDPG was supplied as substrate”. In assay [2], the Km stood at 310 µM. For the compound `CC(C)(O)[C@@H](O)C(=O)O` [DIV], the LCMS/MS product assay entry in assay [3] is “soybean and E. coli DHAD both converted DIV to its corresponding dehydration product”. Turning to `O=P(O)(O)OC[C@H]1OC(O)(COP(=O)(O)O)[C@@H](O)[C@@H]1O` (stereo partly drawn) [D-fructose-1,6-bisphosphate], the Km in assay [2] turned out to be 1260 µM.

With `O=C(O)[C@H](O)[C@@H](O)[C@H](O)[C@H](O)COP(=O)(O)O` [6-PG], the LCMS/MS product assay entry in assay [4] is recorded as “E. coli EDD catalyzed the expected dehydration of 6-PG to KDPG”.

The values are drawn from PMC10847513, “Plastid ancestors lacked a complete Entner-Doudoroff pathway, limiting plants to glycolysis and the pentose phosphate pathway” (Nature Communications, 2024).
